Among the data in patent US20250197372A1 (priority 2020, published 2025) are IC50 values, retold here.

The term IC50 denotes the concentration at which inhibition is half-maximal.

Bounds are passed on as bounds.

Holding throughout (assay type): biochemical
Assay [1] addresses recombinant human GAA (acid alpha-glucosidase) (Homo sapiens, UniProt P10253). Put plainly: Acid alpha-glucosidase (GAA) assay (4-methylumbelliferyl-alpha-D-pyranoside substrate, fluorescence). The procedure, abridged: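 Recombinant human enzyme preincubated 60 min at 37 °C with compound dilutions, then 4-methylumbelliferyl-alpha-D-pyranoside substrate added for 20 min at 37 °C. Stopped with glycine/NaOH pH 10; methylumbelliferone fluorescence (ex 365, em 440 nm) versus untreated enzyme; IC50 by 4-PL fit.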

The target of assay [2] is T1, recombinant human GBA (beta-glucocerebrosidase) (Homo sapiens, UniProt P04062).
T1 sequence (P04062 40-536): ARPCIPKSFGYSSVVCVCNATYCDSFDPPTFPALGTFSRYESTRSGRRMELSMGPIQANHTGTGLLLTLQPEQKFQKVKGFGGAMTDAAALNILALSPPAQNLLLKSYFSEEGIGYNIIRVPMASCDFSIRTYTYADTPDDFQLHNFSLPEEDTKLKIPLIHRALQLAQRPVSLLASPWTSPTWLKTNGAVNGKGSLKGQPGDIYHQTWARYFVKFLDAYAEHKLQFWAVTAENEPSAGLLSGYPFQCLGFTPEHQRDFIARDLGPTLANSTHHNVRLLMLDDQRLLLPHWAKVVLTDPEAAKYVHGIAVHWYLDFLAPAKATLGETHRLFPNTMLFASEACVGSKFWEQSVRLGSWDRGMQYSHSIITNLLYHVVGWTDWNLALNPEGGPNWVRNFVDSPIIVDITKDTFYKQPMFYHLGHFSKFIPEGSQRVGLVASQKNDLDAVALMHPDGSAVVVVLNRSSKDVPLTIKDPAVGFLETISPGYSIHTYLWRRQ
The assay can be described thus: Beta-glucocerebrosidase (GBA, glucosylceramidase) assay (4-methylumbelliferyl-beta-D-pyranoside substrate, fluorescence). The procedure, abridged: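 Recombinant human GBA preincubated with compound dilutions 60 min at 37 °C, then 4-methylumbelliferyl-beta-D-pyranoside added for 60 min at 37 °C. Stopped at pH 10 (glycine/NaOH); fluorescence ex 365/em 440 nm. IC50 from 4-PL fit of inhibition relative to untreated enzyme.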

Assay [3] deals with rat maltase (partially purified alpha-glucosidase from intestinal rat powder). Put plainly: Intestinal alpha-glucosidase assay, maltose substrate (Glucose GO Kit). The procedure, abridged: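 Glucose release is the read-out: compounds at multiple dilutions are first held with partially purified rat intestinal alpha-glucosidase for 60 min at 37 °C, after which maltose or sucrose substrate reacts for 30 min at 37 °C before a 5 min 90 °C stop. IC50 comes from a four-parameter logistic fit.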

Assay [4] addresses rat sucrase (partially purified alpha-glucosidase from intestinal rat powder) (Rattus norvegicus, UniProt P23739). The assay can be described thus: Intestinal alpha-glucosidase assay, sucrose substrate (Glucose GO Kit). The procedure, abridged:
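Enzyme from intestinal rat powder, partially purified, is exposed to compound for 60 min at 37 °C. Disaccharide substrate (maltose or sucrose respectively) then reacts 30 min at 37 °C. Heat-stopped samples are assayed for glucose, and percent inhibition versus concentration gives IC50 via 4-PL.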

Chain of rat sucrase (partially purified alpha-glucosidase from intestinal rat powder) (P23739 whole entry): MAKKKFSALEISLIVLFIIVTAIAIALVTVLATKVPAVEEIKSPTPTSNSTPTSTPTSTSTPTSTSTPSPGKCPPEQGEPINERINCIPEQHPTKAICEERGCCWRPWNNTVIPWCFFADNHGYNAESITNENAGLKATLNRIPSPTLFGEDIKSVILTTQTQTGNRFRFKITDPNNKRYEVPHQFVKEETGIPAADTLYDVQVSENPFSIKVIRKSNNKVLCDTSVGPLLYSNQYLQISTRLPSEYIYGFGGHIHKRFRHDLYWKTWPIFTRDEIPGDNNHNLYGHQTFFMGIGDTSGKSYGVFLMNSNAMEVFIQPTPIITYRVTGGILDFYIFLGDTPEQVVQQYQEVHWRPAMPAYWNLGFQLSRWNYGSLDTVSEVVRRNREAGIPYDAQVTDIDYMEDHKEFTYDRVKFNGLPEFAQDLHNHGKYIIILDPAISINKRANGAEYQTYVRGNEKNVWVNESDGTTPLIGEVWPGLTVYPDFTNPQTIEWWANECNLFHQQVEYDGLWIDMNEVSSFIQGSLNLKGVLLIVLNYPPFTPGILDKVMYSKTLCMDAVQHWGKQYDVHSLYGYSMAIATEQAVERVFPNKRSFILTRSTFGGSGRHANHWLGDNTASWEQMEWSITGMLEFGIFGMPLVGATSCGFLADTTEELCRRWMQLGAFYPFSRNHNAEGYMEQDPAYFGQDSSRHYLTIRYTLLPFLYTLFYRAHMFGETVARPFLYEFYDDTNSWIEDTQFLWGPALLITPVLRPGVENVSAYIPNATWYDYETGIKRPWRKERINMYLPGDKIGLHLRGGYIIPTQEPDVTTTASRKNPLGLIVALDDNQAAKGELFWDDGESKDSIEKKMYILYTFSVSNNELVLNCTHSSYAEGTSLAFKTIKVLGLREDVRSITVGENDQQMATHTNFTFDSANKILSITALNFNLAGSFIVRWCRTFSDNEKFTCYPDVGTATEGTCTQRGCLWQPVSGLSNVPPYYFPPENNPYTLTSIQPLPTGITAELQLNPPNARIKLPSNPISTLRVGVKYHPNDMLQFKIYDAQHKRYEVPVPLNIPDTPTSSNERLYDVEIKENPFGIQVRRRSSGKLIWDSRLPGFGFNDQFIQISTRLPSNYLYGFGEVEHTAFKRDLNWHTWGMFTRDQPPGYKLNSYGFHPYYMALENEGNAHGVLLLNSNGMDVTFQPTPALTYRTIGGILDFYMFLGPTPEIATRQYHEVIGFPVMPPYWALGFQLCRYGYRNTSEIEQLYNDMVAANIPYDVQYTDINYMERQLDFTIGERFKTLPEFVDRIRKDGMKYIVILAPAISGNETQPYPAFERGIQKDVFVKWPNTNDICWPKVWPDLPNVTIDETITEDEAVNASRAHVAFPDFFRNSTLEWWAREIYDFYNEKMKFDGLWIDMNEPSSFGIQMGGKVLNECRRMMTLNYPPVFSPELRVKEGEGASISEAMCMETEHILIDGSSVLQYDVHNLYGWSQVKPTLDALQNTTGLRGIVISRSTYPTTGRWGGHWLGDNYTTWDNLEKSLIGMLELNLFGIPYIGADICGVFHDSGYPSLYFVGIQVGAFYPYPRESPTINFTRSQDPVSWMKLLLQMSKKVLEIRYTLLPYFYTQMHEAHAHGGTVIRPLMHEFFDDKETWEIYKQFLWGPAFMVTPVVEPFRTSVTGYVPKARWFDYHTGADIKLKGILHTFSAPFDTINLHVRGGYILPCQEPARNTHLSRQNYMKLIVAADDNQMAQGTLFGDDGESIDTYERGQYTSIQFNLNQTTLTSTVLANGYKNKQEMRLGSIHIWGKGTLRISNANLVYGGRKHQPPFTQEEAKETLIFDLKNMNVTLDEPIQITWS

With `N#Cc1cc(NCc2ccc(CN3C[C@H](O)[C@@H](O)[C@H](O)[C@H]3CO)cc2)cc(-c2cccnn2)c1` [Compound 1064, 3-(pyridazin-3-yl)-5-{[(4-{[(2R,3R,4R,5S)-3,4,5-trihydroxy-2-(hydroxymethyl)piperidin-1-yl]methyl}phenyl)methyl]amino}-benzonitrile], the IC50 in assay [1] is 39 nM; in assay [2] it was 53.7 µM; in assay [3], 2 nM; in assay [4] it was 26 nM.
For `N#Cc1cc(NCc2ccc(CN3C[C@H](O)[C@@H](O)[C@H](O)[C@H]3CO)cc2)cc(-c2ncccn2)c1` [Compound 1065, 3-(pyrimidin-2-yl)-5-{[(4-{[(2R,3R,4R,5S)-3,4,5-trihydroxy-2-(hydroxymethyl)piperidin-1-yl]methyl}phenyl)methyl]amino}-benzonitrile] the same measures were 90 nM, 32.1 µM, 3 nM and 37 nM.
As to `OC[C@@H]1[C@@H](O)[C@H](O)[C@@H](O)CN1Cc1cccc(CNc2ccc(C3=COCCO3)cc2)c1` [Compound 1066, (2R,3R,4R,5S)-1-{[3-({[4-(5,6-dihydro-1,4-dioxin-2-yl)phenyl]amino}methyl)phenyl]methyl}-2-(hydroxymethyl)piperidine-3,4,5-triol], the IC50 in assay [1] was 1060 nM; in assay [2], above 100 µM; in assay [3], 41 nM; in assay [4] it was 26 nM.
For `COc1cc(Br)cc(NCCn2cc(CCN3C[C@H](O)[C@@H](O)[C@H](O)[C@H]3CO)c3ccccc32)c1` [Compound 1075, (2R,3R,4R,5S)-1-[2-(1-{2-[(3-bromo-5-methoxyphenyl)amino]ethyl}-1H-indol-3-yl)ethyl]-2-(hydroxymethyl)piperidine-3,4,5-triol] the same measures were 3730 nM, 2.52 µM, 238 nM and 722 nM.
For `OC[C@@H]1[C@@H](O)[C@H](O)[C@@H](O)CN1CCc1cn(CCNc2ccccc2)c2ccccc12` [Compound 1076, (2R,3R,4R,5S)-2-(hydroxymethyl)-1-(2-{1-[2-(phenylamino)ethyl]-1H-indol-3-yl}ethyl)piperidine-3,4,5-triol] the same measures were 4260 nM, 7.81 µM, 250 nM and 854 nM.
On to `CC(C)c1cc(CCNc2ccc(N=[N+]=[N-])cc2[N+](=O)[O-])cc(CCN2C[C@H](O)[C@@H](O)[C@H](O)[C@H]2CO)c1` [Compound 1077, (2R,3R,4R,5S)-1-[2-(3-{2-[(4-azido-2-nitrophenyl)amino]ethyl}-5-(propan-2-yl)phenyl)ethyl]-2-(hydroxymethyl)piperidine-3,4,5-triol], for which the IC50 in assay [1] stood at 10000 nM; in assay [2] it was 0.379 µM; in assay [3], 6650 nM; in assay [4] it was 8140 nM.
For `O=[N+]([O-])c1cc(-c2ncc[nH]2)ccc1NCCc1ccc(CCN2C[C@H](O)[C@@H](O)[C@H](O)[C@H]2CO)cc1` [Compound 1078, (2R,3R,4R,5S)-2-(hydroxymethyl)-1-{2-[4-(2-{[4-(1H-imidazol-2-yl)-2-nitrophenyl]amino}ethyl)phenyl]ethyl}piperidine-3,4,5-triol] the same measures were 343 nM, 6.97 µM, 28 nM and 506 nM.
The like results for `OC[C@@H]1[C@@H](O)[C@H](O)[C@@H](O)CN1Cc1cccc(CNc2ccc(N3CCOCC3)cc2)c1` [Compound 1081, (2R,3R,4R,5S)-2-(hydroxymethyl)-1-{[3-({[4-(morpholin-4-yl)phenyl]amino}methyl)phenyl]methyl}piperidine-3,4,5-triol] were, in that order, 1270 nM, above 100 µM, 110 nM and 161 nM.
For `OC[C@@H]1[C@@H](O)[C@H](O)[C@@H](O)CN1Cc1cccc(CNc2ccc(-c3ccc[nH]3)cc2)c1` [Compound 1082, (2R,3R,4R,5S)-2-(hydroxymethyl)-1-{[3-({[4-(1H-pyrrol-2-yl)phenyl]amino}methyl)phenyl]methyl}piperidine-3,4,5-triol] the same measures were 872 nM, 13.8 µM, 14 nM and 25 nM.
As for `OC[C@@H]1[C@@H](O)[C@H](O)[C@@H](O)CN1Cc1cccc(CNc2ccc(-c3cccnn3)cc2)c1` [Compound 1083, (2R,3R,4R,5S)-2-(hydroxymethyl)-1-{[3-({[4-(pyridazin-3-yl)phenyl]amino}methyl)phenyl]methyl}piperidine-3,4,5-triol], the IC50 was 1950 nM in assay [1], above 100 µM in assay [2], 54 nM in assay [3] and 28 nM in assay [4].
As to `OC[C@@H]1[C@@H](O)[C@H](O)[C@@H](O)CN1Cc1cccc(CNc2ccc(-c3ncccn3)cc2)c1` [Compound 1084, (2R,3R,4R,5S)-2-(hydroxymethyl)-1-{[3-({[4-(pyrimidin-2-yl)phenyl]amino}methyl)phenyl]methyl}piperidine-3,4,5-triol], the IC50 in assay [1] is 2350 nM; in assay [2], above 100 µM; in assay [3] it was 95 nM; in assay [4], 44 nM.
For `O=[N+]([O-])c1cc(CN2CCCO2)ccc1NCc1cccc(CN2C[C@H](O)[C@@H](O)[C@H](O)[C@H]2CO)c1` [Compound 1086], the 50% inhibitory concentration (IC50) in assay [1] is 976 nM; in assay [2], above 100 µM; in assay [3], 124 nM; in assay [4], 76 nM.
The like results for `O=[N+]([O-])c1cc(C2=COCCO2)ccc1NCc1cccc(CN2C[C@H](O)[C@@H](O)[C@H](O)[C@H]2CO)c1` [Compound 1087, (2R,3R,4R,5S)-1-{[3-({[4-(5,6-dihydro-1,4-dioxin-2-yl)-2-nitro-phenyl]amino}methyl)phenyl]methyl}-2-(hydroxymethyl)piperidine-3,4,5-triol] were, in that order, 554 nM, above 100 µM, 4 nM and below 1 nM.
Turning to `O=[N+]([O-])c1cc(-c2ccc[nH]2)ccc1NCc1cccc(CN2C[C@H](O)[C@@H](O)[C@H](O)[C@H]2CO)c1` [Compound 1088, (2R,3R,4R,5S)-2-(hydroxymethyl)-1-{[3-({[2-nitro-4-(1H-pyrrol-2-yl)phenyl]amino}methyl)phenyl]methyl}piperidine-3,4,5-triol], the IC50 was 1950 nM in assay [1], 68.4 µM in assay [2], below 1 nM in assay [3] and below 1 nM in assay [4].
`O=[N+]([O-])c1cc(-c2cccnn2)ccc1NCc1cccc(CN2C[C@H](O)[C@@H](O)[C@H](O)[C@H]2CO)c1` [Compound 1089, (2R,3R,4R,5S)-2-(hydroxymethyl)-1-{[3-({[2-nitro-4-(pyridazin-3-yl)phenyl]amino}methyl)phenyl]methyl}piperidine-3,4,5-triol]: the IC50 in assay [1] turned out to be 572 nM; in assay [2], 97.1 µM; in assay [3], 36 nM; in assay [4], 23 nM.
The like results for `O=[N+]([O-])c1cc(-c2ncccn2)ccc1NCc1cccc(CN2C[C@H](O)[C@@H](O)[C@H](O)[C@H]2CO)c1` [Compound 1090, (2R,3R,4R,5S)-2-(hydroxymethyl)-1-{[3-({[2-nitro-4-(pyrimidin-2-yl)phenyl]amino}methyl)phenyl]methyl}piperidine-3,4,5-triol] were, in that order, 509 nM, 32.4 µM, 34 nM and 2 nM.
For `OC[C@@H]1[C@@H](O)[C@H](O)[C@@H](O)CN1Cc1ccc(CNc2ccc(CN3CCCO3)cc2)cc1` [Compound 1092, (2R,3R,4R,5S)-2-(hydroxymethyl)-1-({4-[({4-[(1,2-oxazolidin-2-yl)methyl]phenyl}amino)methyl]phenyl}methyl)piperidine-3,4,5-triol] the same measures were 786 nM, 121 µM, 38 nM and 48 nM.
The like results for `OC[C@@H]1[C@@H](O)[C@H](O)[C@@H](O)CN1Cc1ccc(CNc2ccc(C3=COCCO3)cc2)cc1` [Compound 1093, (2R,3R,4R,5S)-1-{[4-({[4-(5,6-dihydro-1,4-dioxin-2-yl)phenyl]amino}methyl)phenyl]methyl}-2-(hydroxymethyl)piperidine-3,4,5-triol] were, in that order, 108 nM, 7.48 µM, 2 nM and 7 nM.
